These results are taken from DBAASP.

The structures appear in SMILES notation. Converted amounts (≈) assume the structure as drawn. Bounds are passed on as bounds.

What all share (assay): ≥ marks a high value that may be exact or a test limit, other limits are often not marked, values filed in µg/mL are converted to µM
The test system of experiment [1] is Candida albicans ATCC 10231.
For experiment [2], the system named is Cryptococcus neoformans ATCC 32045.
The test system of experiment [3] is Escherichia coli ATCC 2592.
The subject of experiment [4] is Pseudomonas aeruginosa ATCC 10145.
The test system of experiment [5] is Staphylococcus aureus ATCC 33591.
For experiment [6], the system named is Pseudomonas aeruginosa Ps4.
In experiment [7] the test system is Escherichia coli ATCC 11775.
Experiment [8] relates to Staphylococcus aureus ATCC 12600.

As usually defined, the MIC is the lowest concentration found to suppress growth. A higher MIC goes with a need for much substance. Regarding `CC(C)C[C@H](NC(=O)[C@H](C)NC(=O)[C@H](CC(C)C)NC(=O)[C@H](C)NC(=O)[C@H](CC(C)C)NC(=O)[C@H](C)NC(=O)[C@H](CC(C)C)NC(=O)[C@H](C)NC(=O)[C@H](CC(C)C)NC(=O)[C@H](C)NC(=O)[C@H](CC(C)C)NC(=O)[C@H](C)NC(=O)[C@H](CC(C)C)NC(=O)[C@H](C)NC(=O)[C@H](CC(C)C)NC(=O)[C@H](C)NC(=O)[C@H](CC(C)C)NC(=O)[C@H](C)NC(=O)[C@H](CC(C)C)NC(=O)[C@H](C)NC(=O)[C@@H](N)CC(C)C)C(=O)N[C@@H](C)C(=O)O` [LALALALALALALALALALALA], the MIC was over 245 µM in experiment [1]; at least 43.1 µM in experiment [2]; at least 86.5 µM in experiment [3]; at least 122 µM in experiment [4]; at least 86.5 µM in experiment [5].

Regarding `CC(C)C[C@H](NC(=O)[C@H](CCCCN)NC(=O)[C@H](CC(C)C)NC(=O)[C@H](CCCCN)NC(=O)[C@H](CC(C)C)NC(=O)[C@H](CCCCN)NC(=O)[C@H](CC(C)C)NC(=O)[C@H](CCCCN)NC(=O)[C@H](CC(C)C)NC(=O)[C@H](CCCCN)NC(=O)[C@H](CC(C)C)NC(=O)[C@H](CCCCN)NC(=O)[C@H](CC(C)C)NC(=O)[C@H](CCCCN)NC(=O)[C@@H](N)CC(C)C)C(=O)N[C@@H](CCCCN)C(=O)O` [LKLKLKLKLKLKLKLK], the MIC is 181 µM (≈ 354 µg/mL) in experiment [1]; 23 µM (≈ 44.9 µg/mL) in experiment [2]; at least 64.1 µM in experiment [3]; at least 66.7 µM in experiment [4]; at least 90.7 µM in experiment [5].

As to `CC(C)C[C@H](NC(=O)[C@H](CCCCN)NC(=O)[C@H](CC(C)C)NC(=O)[C@H](CCCCN)NC(=O)[C@H](CC(C)C)NC(=O)[C@H](CCCCN)NC(=O)[C@H](CC(C)C)NC(=O)[C@H](CCCCN)NC(=O)[C@H](CC(C)C)NC(=O)[C@H](CCCCN)NC(=O)[C@H](CC(C)C)NC(=O)[C@H](CCCCN)NC(=O)[C@H](CC(C)C)NC(=O)[C@H](CCCCN)NC(=O)[C@H](CC(C)C)NC(=O)[C@H](CCCCN)NC(=O)[C@@H](N)CC(C)C)C(=O)N[C@@H](CCCCN)C(=O)O` [LKLKLKLKLKLKLKLKLK], the MIC in experiment [1] is 161 µM (≈ 354 µg/mL); in experiment [2], 20.3 µM (≈ 44.5 µg/mL); in experiment [3] it was at least 40.2 µM; in experiment [4], at least 36.5 µM; in experiment [5] it was at least 161 µM.

Regarding `CC[C@H](C)[C@H](NC(=O)[C@H](CC(N)=O)NC(=O)[C@H](CCCN=C(N)N)NC(=O)[C@@H](NC(=O)[C@H](Cc1c[nH]c2ccccc12)NC(=O)[C@@H](N)Cc1ccccc1)[C@@H](C)CC)C(=O)N[C@@H](CCCN=C(N)N)C(=O)N[C@@H](CCCCN)C(=O)N[C@H](C(=O)N[C@@H](CCCN=C(N)N)C(N)=O)C(C)C` [FWIRNIRKVR], the MIC in experiment [6] is at least 180 µM.

For the molecule `C[C@H](NC(=O)[C@H](C)NC(=O)[C@H](CCCCN)NC(=O)[C@H](CCCCN)NC(=O)[C@H](C)NC(=O)[C@H](C)NC(=O)[C@H](CCCCN)NC(=O)[C@H](CCCCN)NC(=O)[C@H](C)NC(=O)[C@H](C)NC(=O)[C@H](CCCCN)NC(=O)[C@H](CCCCN)NC(=O)[C@H](C)NC(=O)[C@H](C)NC(=O)[C@H](CCCCN)NC(=O)[C@H](CCCCN)NC(=O)[C@H](C)NC(=O)[C@H](C)NC(=O)[C@H](CCCCN)NC(=O)[C@H](CCCCN)NC(=O)[C@H](C)NC(=O)[C@H](C)NC(=O)[C@H](CCCCN)NC(=O)[C@H](CCCCN)NC(=O)[C@H](C)NC(=O)[C@H](C)NC(=O)[C@@H](N)CCCCN)C(=O)N[C@@H](CCCCN)C(=O)O` [KAAKKAAKKAAKKAAKKAAKKAAKKAAK], the MIC in experiment [1] was over 178 µM; in experiment [2], 31.4 µM (≈ 88 µg/mL); in experiment [3], at least 178 µM; in experiment [4], at least 89 µM; in experiment [5] it was at least 178 µM.

Turning to `CC[C@H](C)[C@H](NC(=O)[C@H](CC(N)=O)NC(=O)[C@H](CCCN=C(N)N)NC(=O)[C@H](CCC(N)=O)NC(=O)[C@H](Cc1c[nH]c2ccccc12)NC(=O)[C@@H](N)Cc1ccccc1)C(=O)N[C@@H](CCCN=C(N)N)C(=O)N[C@H](C(=O)N[C@@H](CCCN=C(N)N)C(N)=O)C(C)C` [FWQRNIRVR], in experiment [6], the MIC was at least 196 µM.

For `CC(C)C[C@H](NC(=O)[C@H](CCCCN)NC(=O)[C@H](CC(C)C)NC(=O)[C@H](CCCCN)NC(=O)[C@H](CC(C)C)NC(=O)[C@H](CCCCN)NC(=O)[C@H](CC(C)C)NC(=O)[C@H](CCCCN)NC(=O)[C@H](CC(C)C)NC(=O)[C@H](CCCCN)NC(=O)[C@H](CC(C)C)NC(=O)[C@H](CCCCN)NC(=O)[C@H](CC(C)C)NC(=O)[C@H](CCCCN)NC(=O)[C@H](CC(C)C)NC(=O)[C@H](CCCCN)NC(=O)[C@H](CC(C)C)NC(=O)[C@H](CCCCN)NC(=O)[C@@H](N)CC(C)C)C(=O)N[C@@H](CCCCN)C(=O)O` [LKLKLKLKLKLKLKLKLKLK], the MIC in experiment [1] was 145 µM (≈ 354 µg/mL); in experiment [2], at least 36.2 µM; in experiment [3] it was at least 79.6 µM; in experiment [4] it was at least 51.4 µM; in experiment [5], at least 72.7 µM.

For the molecule `NCCCC[C@H](NC(=O)[C@H](Cc1ccccc1)NC(=O)[C@H](CCCCN)NC(=O)[C@H](CCCCN)NC(=O)[C@H](Cc1ccccc1)NC(=O)[C@H](CCCCN)NC(=O)[C@H](CCCCN)NC(=O)[C@H](Cc1ccccc1)NC(=O)[C@H](CCCCN)NC(=O)[C@H](CCCCN)NC(=O)[C@H](Cc1ccccc1)NC(=O)[C@H](CCCCN)NC(=O)[C@H](CCCCN)NC(=O)[C@H](Cc1ccccc1)NC(=O)[C@H](CCCCN)NC(=O)[C@H](CCCCN)NC(=O)[C@H](Cc1ccccc1)NC(=O)[C@@H](N)CCCCN)C(=O)O` [KFKKFKKFKKFKKFKKFK], the MIC in experiment [1] is 145 µM (≈ 354 µg/mL); in experiment [2] it was 20.4 µM (≈ 49.8 µg/mL); in experiment [3], at least 36.1 µM; in experiment [4] it was at least 51.2 µM; in experiment [5], at least 205 µM.

`CC[C@H](C)[C@H](NC(=O)[C@H](CC(N)=O)NC(=O)[C@H](CCCN=C(N)N)NC(=O)[C@@H](NC(=O)[C@H](Cc1c[nH]c2ccccc12)NC(=O)[C@@H](N)Cc1ccccc1)C(C)C)C(=O)N[C@@H](CCCN=C(N)N)C(=O)N[C@@H](CCCCN)C(=O)N[C@H](C(=O)N[C@@H](CCCN=C(N)N)C(N)=O)C(C)C` [FWVRNIRKVR]: in experiment [6], the MIC is at least 250 µM.

`CC[C@H](C)[C@H](NC(=O)[C@H](CC(N)=O)NC(=O)[C@H](CCCN=C(N)N)NC(=O)[C@H](CCC(N)=O)NC(=O)[C@H](Cc1c[nH]c2ccccc12)NC(=O)[C@H](Cc1ccccc1)NC(=O)[C@@H](N)CS)C(=O)N[C@@H](CCCN=C(N)N)C(=O)N[C@@H](CCCCN)C(=O)N[C@H](C(=O)N[C@@H](CS)C(=O)N[C@@H](CCCN=C(N)N)C(N)=O)C(C)C` [CFWQRNIRKVCR] displayed an MIC in experiment [6] of at least 155 µM.

In the case of `CC[C@H](C)[C@H](NC(=O)[C@H](CC(N)=O)NC(=O)[C@H](CCCN=C(N)N)NC(=O)[C@H](CCC(N)=O)NC(=O)[C@H](Cc1c[nH]c2ccccc12)NC(=O)[C@@H](N)CCCN=C(N)N)C(=O)N[C@@H](CCCN=C(N)N)C(=O)N[C@@H](CCCCN)C(=O)N[C@H](C(=O)N[C@@H](CCCN=C(N)N)C(=O)N[C@@H](CCCN=C(N)N)C(N)=O)C(C)C` [RWQRNIRKVRR], the MIC in experiment [6] was at least 159 µM.

The molecule `CC[C@H](C)[C@H](NC(=O)[C@H](CCCN=C(N)N)NC(=O)[C@H](CCCN=C(N)N)NC(=O)[C@H](CCCN=C(N)N)NC(=O)[C@@H](NC(=O)[C@H](CCCCN)NC(=O)[C@H](CCCN=C(N)N)NC(=O)[C@@H](NC(=O)[C@H](CC(N)=O)NC(=O)[C@H](CCCN=C(N)N)NC(=O)[C@H](CCC(N)=O)NC(=O)[C@H](Cc1c[nH]c2ccccc12)NC(=O)[C@@H](N)Cc1ccccc1)[C@@H](C)CC)C(C)C)C(N)=O` [FWQRNIRKVRRRI] returned an MIC in experiment [6] of at least 137 µM.

For `CC[C@H](C)[C@H](N)C(=O)N[C@H](C(=O)N1CCC[C@H]1C(=O)N[C@@H](CC(C)C)C(=O)N1CCC[C@H]1C(=O)N[C@@H](CC(C)C)C(=O)NCC(=O)N[C@@H](Cc1ccc(O)cc1)C(=O)N[C@@H](Cc1ccccc1)C(=O)N[C@@H](C)C(=O)N[C@@H](CCCCN)C(=O)N[C@@H](CCCCN)C(=O)N[C@H](C(=O)O)[C@@H](C)O)[C@@H](C)CC` [IIPLPLGYFAKKT], the values for the MIC in experiment [7] and in experiment [8] were 3 µM (≈ 4.38 µg/mL) and 6 µM (≈ 8.76 µg/mL), respectively.

Turning to `C[C@H](NC(=O)[C@H](Cc1ccccc1)NC(=O)[C@H](CCCCN)NC(=O)[C@H](CCCCN)NC(=O)[C@H](C)NC(=O)[C@H](Cc1ccccc1)NC(=O)[C@H](CCCCN)NC(=O)[C@H](CCCCN)NC(=O)[C@H](C)NC(=O)[C@H](Cc1ccccc1)NC(=O)[C@H](CCCCN)NC(=O)[C@H](CCCCN)NC(=O)[C@H](C)NC(=O)[C@H](Cc1ccccc1)NC(=O)[C@H](CCCCN)NC(=O)[C@H](CCCCN)NC(=O)[C@H](C)NC(=O)[C@H](Cc1ccccc1)NC(=O)[C@H](CCCCN)NC(=O)[C@H](CCCCN)NC(=O)[C@H](C)NC(=O)[C@H](Cc1ccccc1)NC(=O)[C@H](CCCCN)NC(=O)[C@@H](N)CCCCN)C(=O)O` [KKFAKKFAKKFAKKFAKKFAKKFA], the MIC was 61.7 µM (≈ 177 µg/mL) in experiment [1]; 15.5 µM (≈ 44.5 µg/mL) in experiment [2]; 7.9 µM (≈ 22.6 µg/mL) in experiment [3]; 21.6 µM (≈ 62 µg/mL) in experiment [4]; at least 87.2 µM in experiment [5].

`CC[C@H](C)[C@H](NC(=O)[C@H](CC(N)=O)NC(=O)[C@H](CCCN=C(N)N)NC(=O)[C@H](CCC(N)=O)NC(=O)[C@H](Cc1c[nH]c2ccccc12)NC(=O)[C@H](CCCN=C(N)N)NC(=O)[C@@H](N)CCCN=C(N)N)C(=O)N[C@@H](CCCN=C(N)N)C(=O)N[C@@H](CCCCN)C(=O)N[C@H](C(=O)N[C@@H](CCCN=C(N)N)C(=O)N[C@@H](CCCN=C(N)N)C(N)=O)C(C)C` [RRWQRNIRKVRR] yielded an MIC in experiment [6] of at least 145 µM.
